{"source": "patent US12390487B2", "about": "“Antiseptic skin prep composition” (Solventum Intellectual Properties Company, priority 2019, dated 2025)", "experiment": "Solubility of dye in alcohol systems", "assay_type": "physicochemical", "description": "It was observed that, Ponceau 4R Dye precipitated on the second day. The others (Brilliant Blue, D&C Green, Carmoisine) were stable over 30 days at room temperature with no precipitation observed. PVPK 120 postpones the precipitation of anionic dyes with CHG to various degrees. It was observed that the azo dye structure with 3 sulphonate groups precipitated out of solution quicker."}
{"smiles": "O=C1OC2(c3ccccc31)c1cc(I)c(O)c(I)c1Oc1c2cc(I)c(O)c1I", "note": "[Erythrosine]", "values": [{"measurement": "Solubility in alcohol systems", "value": "good solubility"}]}
